Broadly, the IC50 is the midpoint of a concentration-inhibition curve. Usually LD50 stands for the dose expected to kill half of the subjects tested.

The values that follow come from patent US5141960A, “Tricyclic glycinamide derivatives as anti-convulsants” (G. D. Searle & Co., priority 1991, dated 1992).

Series [1] relates to convulsions and death induced by 3-mercaptopropionic acid. Briefly: 3-Mercaptopropionic acid (3-MPA) induced convulsions. The class given is in vivo, male Swiss albino mice (CD1). The settings on record: for 3-MPA score: total number of mice protected for two groups of 5 animals, 30 min: 30 min before convulsions induced; for activity as inhibitors of tonic convulsions: overall, 3-MPA induced, oral, mice. The method, then: (§1) Treatment of a mammal afflicted by or susceptible to certain CNS disorders is accomplished by administration of a therapeutically-effective amount of a compound of Formula I. In particular, compounds 1-3 of Table 1 were evaluated by in vitro and in vivo animal model assays to determine the pharmacological properties of such compounds and their suitability for use as therapeutic drugs in humans. These biological assays, as described below, consisted of prevention of induced convulsions in mice, a TCP binding study in rat brain, determination of acute toxicity in mice and an animal behavior assay. Except as otherwise specified, the animals used in the in vivo test were male Swiss albino mice of weight 22 to 33 g [CD1, Charles River, France], housed in groups of 10 on a 12-hour dark-light cycle for at least one week and fasted overnight prior to testing.
Compounds of Formula I were examined as inhibitors of convulsions and death induced by the convulsant agent 3-mercaptopropionic acid (3-MPA, 120 mg/kg subcutaneously) [W. van Dorsser, D. Barris, A. Cordi and J. Roba, Arch. Int. Pharmacodyn., 266, 239-249 (1983)]. The compounds of the invention were administered orally at a dosage of either 100 mg/kg or 30 mg/kg in a volume of 10 ml/kg each to 5 mice, at intervals of 30 minutes or 2 hours before convulsions were induced. The number of mice protected against tonic convulsions and the number of dead mice were noted. Results are given in Table II as a score which represents the total number of mice protected for two groups of 5 animals (3-MPA).

For series [2], the target named is TCP (1-[1-(2-thienyl)cyclohexyl]piperidine) binding in rat brain synaptic membranes (SPM). Briefly: TCP binding study. The conditions noted are these: 2 nM tritiated TCP, pH 7.4, 25° C., 60 min. As for the experimental part: The effect of compounds of Formula I on TCP (1-[1-(2-thienyl)cyclohexyl]piperidine) binding was measured in rat brain synaptic membranes (SPM) prepared by known methods [J. B. Monahan & J. Michel; J. Neurochem., 48, 1699-1708 (1987)]. Prior to their use in the binding assay, frozen SPM were thawed, then diluted twenty fold with 50 mM Tris/acetate [pH 7.4, containing 0.04% (v/v) Triton X-100], incubated for 30 min. at 37° C. and centrifuged at 95,000 xg for 15 min. The Triton X-100 treated SPM were washed with 5 mM Tris/HCl (pH 7.4) and centrifuged a total of six times. Compound of the invention was incubated at differing concentrations with SPM (0.2-0.4 mg protein) and 2 nM tritiated TCP, in a total volume of 0.5 ml of 5 mM Tris/HCl buffer (pH 7.4) at 25° C. for 60 min. The samples were filtered through glass fiber filters (Schleicher & Schuell #32) which had been pretreated with 0.05% (v/v) polyethyleneimine, washed with 2 ml of ice-cold 5 mM Tris/HCl buffer, and then counted on a Beckman LS 5800 liquid scintillation counter with automatic corrections for quenching and counting efficiency. Inhibition of TCP binding was measured as a decrease in basal binding. […] TCP binding inhibition values (IC50) were calculated using logit-log analysis and calculations and regression analysis were performed using templates developed for Lotus 123 by known methods [L. M. Pullan, Computer Appli. […]

Series [3] in a line: Acute toxicity (LD50, oral). The arrangement: species or system male mice. The conditions noted are these: mouse, in vivo, mice, mortality over 15 days. As for the experimental part: as §1
The acute toxicity was determined after oral administration of the test compound to mice. […] Doses used in the test were determined by observing toxic effects on the mice, which doses varied from 3,000 mg/kg down to about 3 mg/kg. The mortality was recorded over a period of 15 days. The LD50 result in Table II was calculated according to published methods [Lichtfield and Wilcoxon, J. Pharmacol. Exp. Ther., 96, 99 (1949)] and is expressed in mg of test compound per kilogram of mouse body weight.

On the set-up of series [4]: species or system mice. The conditions noted are these: mouse, in vivo. As for the experimental part:
as §1
Behavioral effect of compounds of the invention on animals were determined by observations taken at 5 to 6 hours and at 24 hours after administration of compounds of the invention. Determinations were made based on a method derived from that of S. Irwin [See R. A. Turner, Screening Methods in Pharmacology, Chapter 3, pages 22-34, Academic Press, N.Y. (1965)]. If an anomaly were noted, the observation was extended and smaller doses were tested. […]

[5] abbreviates: compound orally at 100 mg/kg or 30 mg/kg, 3-MPA 120 mg/kg s.c.

For the compound `NC(=O)CNC1c2ccccc2CCc2ccccc21` [Compound 1, 2-(2,3-6,7-dibenzocycloheptanylamino)acetamide], the “3-MPA score: total number of mice protected for two groups of 5 animals, 30 min” value (“3-MPA score: total number … 30 min” below) in series [1] (setting [5]) is reported as 10. Moreover, the “3-MPA score: total number of mice protected for two groups of 5 animals, 2 hrs” value in series [1] (compound orally at 100 mg/kg or 30 mg/kg, 2 hours before convulsions induced, 3-MPA 120 mg/kg s.c.) turned out to be 10. In addition, the “activity as inhibitors of tonic convulsions” value in series [1] is “very good activity”. In addition, in series [2], the IC50 worked out at 38 µM. The LD50 at 360 h in series [3] came out at 780 mg/kg. Further, the “Behavior: sedation (SED), dose at which the behavior is observed” value in series [4] was 300 mg/kg.

For `NC(=O)CNC1c2ccccc2C=Cc2ccccc21` [Compound 2, 2-(2,3-6,7-dibenzocyclohept-4-enylamino)acetamide], the “3-MPA score: total number … 30 min” value in series [1] (setting [5]) came out at 3. Also, the “Behavior: convulsions (CON), dose at which the behavior is observed” value in series [4] is reported as 1000 mg/kg.

`NC(=O)CNC1c2ccccc2CSc2ccccc21` (stereo not shown) [Compound 3, 2-(2,3-6,7-dibenzo-4-thiacycloheptanylamino)acetamide]: the “3-MPA score: total number … 30 min” value in series [1] (setting [5]) is given as 10. Moreover, the “activity as inhibitors of tonic convulsions” value in series [1] was “very good activity”.
